Results: patent publication US5536740A, “Skin care compositions containing dimethyl imidazolidinone and retinol or retinyl ester” (priority 1995, dated 1996)
“Also recorded” adds a separate entry of the source. Like-named read-outs stand apart in the source and are kept apart here.

What was measured:
[1] = tested on: TGase I in human keratinocytes; experiment: ELISA based transglutaminase I (TGase I) assay of keratinocyte differentiation; format: cell-based
Procedure: (§1) Human keratinocytes, isolated from neonatal foreskin by trypsin treatment were grown in Dulbecco Modification Eagle (DME) Hams F12 (1:1) medium/10% fetal calf serum in the presence of irradiated 3T3 mouse fibroblasts for establishing dividing keratinocyte colonies. Cells were grown under the above condition until their second passage and kept frozen for future use. […] On day 7, when the cells were 80-90% confluent, they were trypsinized and plated in the serum-free medium for the various experiments.
Transglutaminase Assay and Keratinocyte Differentiation
During the process of terminal differentiation in the epidermis, a 15 nm thick layer of protein, known as the cornified envelope (CE) is formed on the inner surface of the cell periphery. The CE is composed of numerous distinct proteins which have been cross-linked together by the formation of N^ε -(γ-glutamyl)lysine isodipeptide bonds catalyzed by the action of at least two different transglutaminases (TGases) expressed in the epidermis. TGase 1 is expressed in abundance in the differentiated layers of the epidermis, especially the granular layer, but is absent in the undifferentiated basal epidermis. Thus TGase I is a useful marker of epidermal keratinocyte differentiation with high TGase I levels indicating a more differentiated state. An ELISA based TGase I assay, using a TGase I antibody, was used to assess the state of differentiation of the cultured keratinocytes in the examples that follow.
Keratinocytes (cultured as described above) were plated in 96 well plates at a density of 3,000 cells per well in 200 μl media. After incubation for four days the media was changed to media containing test compounds (six replicates per test). The cells were cultured for a further 72 hours after which time the media was aspirated and the plates stored at -70° C. Plates were removed from the freezer, and the cells washed with PBS. 100 μl sterile water was added and the cells were freeze fractured by freezing at -70° C. then thawing. The cells were incubated for one hour at room temperature (R/T) with PBS/3% BSA (wash buffer, bovine serum albumin), then rinsed with a fresh aliquot of wash buffer. Cells were incubated with 50 μl of primary antibodies monoclonal anti-human transglutaminase (IgG) obtained from Amersham (mouse) diluted 1:300 in wash buffer for one hour, 37° C. then rinsed two times with wash buffer. Cells were then incubated with 50 μl of secondary antibody (Feb fragment, peroxidase conjugated anti-mouse IgG obtaining from Amersham) diluted 1:200 in wash buffer for one hour at 37° C., then rinsed two times with wash buffer. Cells were incubated with substrate solution (4 mg o-phenylene diamine and 3.3 μl 30% H2 O2 in 10 ml 0.1M citrate buffer pH 5.0) for five minutes, R/T, in darkness (under aluminum foil). The reaction was stopped by the addition of 50 μl 4N […]. The absorbance of samples was read at 492 nm in the plate reader. Out of the six replicates, four were treated with both antibodies, two were treated only with the secondary antibody (i.e., to determine background binding of enzyme conjugated Ab). TGase levels were determined by subtracting background from the readings from each treatment and determining mean ±s.d. for the replicates exposed to both Ab.
The level of TGase-1 was normalized to DNA content of the cells in the same well thus eliminating variation due to differences in cell number. DNA quantitation is a particularly useful indicator of cell number, including keratinocyte cell number, because each cell has to all intents and purposes an identical genome and therefore an identical quantity of DNA. The total DNA content of a well of cells therefore is directly proportional to the cell number in that well. Quantitation of DNA was used to normalize the TGase data to cell number.
Keratinocytes were plated in 96 well plates at a density of 3,000 cells per well in […] media.

Human keratinocytes = experiment: 3H-thymidine incorporation assay of keratinocyte proliferation; format: cell-based; details: for mean Thymidine incorp/μg protein ± s.d / activity at 0.025 µM / mean Thymidine incorp./μg protein ± s.d / activity at 0.25 µM / activity at 0.0025 µM: 24 hours
Procedure: as §1
^3 H-Thymidine Incorporation and Keratinocyte Proliferation
The incorporation of ^3 H-thymidine by cultured keratinocytes was used as an assay of keratinocyte proliferation. Thymidine is one of four deoxynucleosides which are the monomeric units of DNA, the universal library of genetic information in the animal kingdom. Prior to cell division of a somatic cell such as a keratinocyte, the complete genome of the cell undergoing cell division is replicated. This involves large scale DNA synthesis by the cell and enables both daughter cells to receive identical copies of the genetic material. When ^3 H-thymidine is included in the culture media of keratinocytes which are synthesizing DNA in preparation for cell division then the labelled nucleoside is incorporated into the newly synthesized DNA. The extent of incorporation of ^3 -thymidine into a population of cells is proportional to the rate of DNA synthesis by this population of cells and therefore an indication of their cellular proliferation.
Keratinocytes (that were cultured as described above) were plated in 24 well plates at a density of 40,000 cells per well in 1 ml media. After incubation for four days or until the cells were 60-70% confluent, the media was changed. Test compounds were added (in triplicate) to the wells 24 hours after the media change, and four hours later 1 μCi^3 H-Thymidine in 50 μl media was added per well. Cells were incubated for a further 24 hours. Media was removed from the cells, 10% ice cold trichloroacetic acid (TCA) added and plates were incubated on ice for 30 minutes. Cells were washed five times with 5% TCA and allowed to dissolve in 500 μl 0.1M NaOH for at least one hour (usually overnight). The preparations were neutralized with 0.1M HCl; 50 μl of the cell preparation was used to determine total protein content. Disintegrations per minute (DPM) from a H labelling of DNA was determined by liquid scintillation counting of 900 μl of the cell preparation. Thymidine incorporation results were expressed as DPM/μg protein.

[2] = Example 4, 2.5 × 10^-8 M, n = 3
[3] = Homo sapiens, Keratinocyte, 72 h, Example 4, 2.5 × 10^-8 M, n = 3, read-out: mean TGase (% control)
[4] = Homo sapiens, Keratinocyte, Example 4, 2.5 × 10^-8 M, n = 3, read-out: mean Thymidine incorp/μg protein (% control)
[5] = 2.5 × 10^-7 M, normalized to DNA, 72 hours, n = 3
[6] = 2.5 × 10^-8 M, normalized to DNA, 72 hours, n = 3
[7] = 2.5 × 10^-9 M (ROH line printed 2.5 × 10^-0 M), normalized to DNA, 72 hours, n = 3
[8] = Homo sapiens, Keratinocyte, 72 h, 2.5 × 10^-7 M, normalized to DNA, 72 hours, n = 3, read-out: mean TGase/DNA (% control)
[9] = Homo sapiens, Keratinocyte, 72 h, 2.5 × 10^-8 M, normalized to DNA, 72 hours, n = 3, read-out: mean TGase/DNA (% control)
[10] = Homo sapiens, Keratinocyte, 72 h, 2.5 × 10^-9 M (ROH line printed 2.5 × 10^-0 M), normalized to DNA, 72 hours, n = 3, read-out: mean TGase/DNA (% control)
[11] = 2.5 × 10^-8 M, n = 3 (Examples 1-3)
[12] = Homo sapiens, Keratinocyte, 2.5 × 10^-7 M, n = 3, read-out: mean Thymidine incorp./μg protein (% control)
[13] = Homo sapiens, Keratinocyte, 2.5 × 10^-8 M, n = 3 (Examples 1-3), read-out: mean Thymidine incorp./μg protein (% control)
[14] = Homo sapiens, Keratinocyte, 2.5 × 10^-9 M, n = 3, read-out: mean Thymidine incorp./μg protein (% control)

With `CCCCCCCCCCCCCCCC(=O)OC/C=C(C)/C=C/C=C(C)/C=C/C1=C(C)CCCC1(C)C` [Retinyl Palmitate (RP), retinyl palmitate] the “effect on keratinocyte TGase level / differentiation (in words)” value [1] was “significantly less effective than retinoic acid at inhibiting keratinocyte differentiation”, the “mean TGase ± s.d” value [1, 2] was 0.790 ± 0.387 and the activity at 0.025 µM [1, 3] was 79%. The “effect on keratinocyte proliferation (in words)” value (Human keratinocytes) was “completely ineffective at increasing keratinocyte proliferation”, the “mean Thymidine incorp/μg protein ± s.d” value (Human keratinocytes; [2]) was 3386 ± 326 DPM/μg protein and the activity at 0.025 µM (Human keratinocytes; [4]) was 97%.
In the case of `CC1=C(/C=C/C(C)=C/C=C/C(C)=C/C(=O)O)C(C)(C)CCC1` [RA, retinoic acid, reference compound], the “mean TGase/DNA × 10^-4 ± s.d” value [1, 5] is reported as 0.16 ± 0.11 × 10^-4, the “mean TGase/DNA × 10^-4 ± s.d” value [1, 6] is reported as 1.34 ± 0.40 × 10^-4 and the “mean TGase/DNA × 10^-4 ± s.d” value [1, 7] is reported as 1.87 ± 0.49 × 10^-4. The “mean TGase ± s.d” value [1, 2] was 0.155 ± 0.098, the “mean TGase (% control)” value ([1]; Example 4, 2.5 × 10^-8 M, n = 3, 0.025 µM, 4320 min) was 15% and the activity at 0.25 µM [1, 8] was 7%. For the same compound, the activity at 0.025 µM [1, 9] was 55%, the activity at 0.0025 µM [1, 10] was 77% and the activity at 0.025 µM [1, 3] was 16%. The “effect on keratinocyte TGase level / differentiation (in words)” value ([1]; listed as Retinoic acid) was “decreased keratinocyte differentiation”, the “effect on keratinocyte TGase level / differentiation (in words)” value ([1]; listed as retinoic acid) was “decreased keratinocyte TGase level over both the ethanol control and did so to a significantly greater extent than each of the corresponding 2.5×10^-7 M, 2.5×10^-8 M and 2.5×10^-9 M retinol treatments” and the “mean Thymidine incorp./μg protein ± s.d” value (Human keratinocytes; 2.5 × 10^-7 M, n = 3) was 2475 ± 116 DPM/μg protein. For the same compound, the “mean Thymidine incorp./μg protein ± s.d” value (Human keratinocytes; [11]) was 2686 ± 72 DPM/μg protein, the “mean Thymidine incorp./μg protein ± s.d” value (Human keratinocytes; 2.5 × 10^-9 M, n = 3) was 2556 ± 80 DPM/μg protein and the “mean Thymidine incorp/μg protein ± s.d” value (Human keratinocytes; [2]) was 3691 ± 205 DPM/μg protein. For the same compound, the activation at 0.025 µM (Human keratinocytes; Homo sapiens, Keratinocyte, read-out: increase in keratinocyte thymidine incorporation over the 2.5×10^-8 M retinol treatment, Example 2, 2.5×10^-8 M) was 28%, the activation at 0.025 µM (Human keratinocytes; Homo sapiens, Keratinocyte, read-out: increase in keratinocyte thymidine incorporation over the 2.5×10^-8 M retinyl palmitate treatment, Example 4, 2.5×10^-8 M) was 6% and the activation at 0.025 µM (Human keratinocytes; Homo sapiens, Keratinocyte, read-out: increase in keratinocyte thymidine incorporation over the ethanol control, Example 2, 2.5×10^-8 M) was 28%. It also gave an activation at 0.025 µM (Human keratinocytes; Homo sapiens, Keratinocyte, read-out: increase in keratinocyte thymidine incorporation over the ethanol control, Example 4, 2.5×10^-8 M) of 6%, an activity at 0.25 µM (Human keratinocytes; [12]) of 118% and an activity at 0.025 µM (Human keratinocytes; [13]) of 128%. For the same compound, the activity at 0.0025 µM (Human keratinocytes; [14]) was 122%, the activity at 0.025 µM (Human keratinocytes; [4]) was 106% and the “effect on keratinocyte proliferation (in words)” value (Human keratinocytes; listed as Retinoic acid) was “increased keratinocyte proliferation”. For the same compound, the “effect on keratinocyte proliferation (in words)” value (Human keratinocytes; listed as retinoic acid) was “significantly increased keratinocyte proliferation over both the ethanol control and each of the 2.5×10^-7 M, 2.5×10^-8 M and 2.5×10^-9 M retinol treatments and they did so in a dose dependant manner”.
With `CC1=C(/C=C/C(C)=C/C=C/C(C)=C/CO)C(C)(C)CCC1` [ROH, Retinol] the “mean TGase/DNA × 10^-4 ± s.d” value [1, 5] was 1.14 ± 0.22 × 10^-4, the “mean TGase/DNA × 10^-4 ± s.d” value [1, 6] was 1.89 ± 0.30 × 10^-4 and the “mean TGase/DNA × 10^-4 ± s.d” value [1, 7] was 2.70 ± 0.59 × 10^-4. It also gave an activity at 0.25 µM [1, 8] of 47%, an activity at 0.025 µM [1, 9] of 77% and an activity at 0.0025 µM [1, 10] of over 100%. The “effect on keratinocyte TGase level / differentiation (in words)” value ([1]; listed as Retinol) was “significantly less effective than retinoic acid at inhibiting keratinocyte differentiation”, the “effect on keratinocyte TGase level / differentiation (in words)” value ([1]; listed as retinol) was “The decrease in transglutaminase level was dose dependant for both retinoic acid and retinol” and the “effect on keratinocyte proliferation (in words)” value (Human keratinocytes) was “completely ineffective at increasing keratinocyte proliferation”. The “mean Thymidine incorp./μg protein ± s.d” value (Human keratinocytes; 2.5 × 10^-7 M, n = 3) was 2218 ± 73 DPM/μg protein, the “mean Thymidine incorp./μg protein ± s.d” value (Human keratinocytes; 2.5 × 10^-7 M, n = 3, listed as Retinol) was 2218 ± 79 DPM/μg protein and the “mean Thymidine incorp./μg protein ± s.d” value (Human keratinocytes; [11]) was 2034 ± 46 DPM/μg protein. The “mean Thymidine incorp./μg protein ± s.d” value (Human keratinocytes; 2.5 × 10^-9 M, n = 3) was 1977 ± 19 DPM/μg protein, the activity at 0.25 µM (Human keratinocytes; [12]) was 106% and the activity at 0.025 µM (Human keratinocytes; [13]) was 97%. It also gave an activity at 0.0025 µM (Human keratinocytes; [14]) of 94%.
With `CN1CCN(C)C1=O` [Dimethyl imidazolidinone, 1,3-dimethyl-2-imidazolidinone] the “effect on keratinocyte TGase level / differentiation (in words)” value [1] was “had no effect on keratinocyte TG1 levels”, the “mean TGase ± s.d” value ([1]; Example 4, 10^-8 M, n = 3) was 0.990 ± 0.251 and the activity at 0.01 µM ([1]; Homo sapiens, Keratinocyte, 72 h, read-out: mean TGase (% control)) was 99%. The “effect on keratinocyte proliferation (in words)” value (Human keratinocytes) was “had no effect on keratinocyte proliferation on its own; also recorded: exerts little or no benefit”, the “mean Thymidine incorp/μg protein ± s.d” value (Human keratinocytes; 10^-6 M, n = 3) was 1892 ± 119 DPM/μg protein and the “mean Thymidine incorp/μg protein ± s.d” value (Human keratinocytes; 10^-7 M, n = 3 (Example 3)) was 2260 ± 166 DPM/μg protein. The “mean Thymidine incorp/μg protein ± s.d” value (Human keratinocytes; 10^-9 M, n = 3) was 2003 ± 128 DPM/μg protein, the “mean Thymidine incorp/μg protein ± s.d” value (Human keratinocytes; Example 4, 10^-7 M, n = 3) was 3214 ± 128 DPM/μg protein and the activity at 1 µM (Human keratinocytes; Homo sapiens, Keratinocyte, 24 h, read-out: mean Thymidine incorp/μg protein (% control), 10^-6 M, 24 hours, n = 3) was 90%. It also gave an activity at 0.1 µM (Human keratinocytes; Homo sapiens, Keratinocyte, 24 h, read-out: mean Thymidine incorp/μg protein (% control), 10^-7 M, 24 hours, n = 3 (Example 3)) of 108%, an activity at 0.001 µM (Human keratinocytes; Homo sapiens, Keratinocyte, 24 h, read-out: mean Thymidine incorp/μg protein (% control), 10^-9 M, 24 hours, n = 3) of 96% and an activity at 0.1 µM (Human keratinocytes; Homo sapiens, Keratinocyte, 24 h, read-out: mean Thymidine incorp/μg protein (% control), Example 4, 10^-7 M, 24 hours, n = 3) of 92%.
